Consider 19 molecules from patent publication US11020399B2, “Intermediates useful in the synthesis of compounds as modulators of protein kinases” (Rhizen Pharmaceuticals SA, priority 2011, dated 2021).

Holding throughout (type): biochemical
In one test the target is PI3kδ (Homo sapiens, UniProt O00329). Kind of test: Fluorescent (HTRF) determination of PI3 kinase enzyme activity, PI3Kδ. Particulars: for inhibition at 0.3 µM: 300 nM (Examples 1-59). The method, boiled down:
(§1)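 Human PI3K isoforms were preincubated with compound for 10 min at room temperature in 10 mM MgCl2, 5 mM DTT, 1.38 μM PIP2, then reacted 30 min after adding 400 μM ATP stock. PIP3 was read by HTRF (665/620 nm). Percent inhibition used blank and enzyme controls; single-point testing was at 1 uM for α/β and 0.3 or 0.1 uM for γ/δ.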
A general note: Time-resolved FRET reads energy transfer from a long-lived donor to a nearby acceptor.

For a further test, the target named is PI3kα (Homo sapiens, UniProt P42336). Briefly: Fluorescent (HTRF) determination of PI3 kinase enzyme activity, PI3Kα. Conditions: 1 uM. The method, boiled down:
as §1

A further test concerns the target PI3kβ (Homo sapiens, UniProt P42338). Kind of test: Fluorescent (HTRF) determination of PI3 kinase enzyme activity, PI3Kβ. Conditions: 1 uM. The method in brief: as §1
In another test the target is PI3kγ (Homo sapiens, UniProt P48736). Kind of test: Fluorescent (HTRF) determination of PI3 kinase enzyme activity, PI3Kγ. Conditions: for inhibition at 0.3 µM: 300 nM (Examples 1-59). The method, boiled down: as §1
Sequence of PI3kγ (P48736 whole entry): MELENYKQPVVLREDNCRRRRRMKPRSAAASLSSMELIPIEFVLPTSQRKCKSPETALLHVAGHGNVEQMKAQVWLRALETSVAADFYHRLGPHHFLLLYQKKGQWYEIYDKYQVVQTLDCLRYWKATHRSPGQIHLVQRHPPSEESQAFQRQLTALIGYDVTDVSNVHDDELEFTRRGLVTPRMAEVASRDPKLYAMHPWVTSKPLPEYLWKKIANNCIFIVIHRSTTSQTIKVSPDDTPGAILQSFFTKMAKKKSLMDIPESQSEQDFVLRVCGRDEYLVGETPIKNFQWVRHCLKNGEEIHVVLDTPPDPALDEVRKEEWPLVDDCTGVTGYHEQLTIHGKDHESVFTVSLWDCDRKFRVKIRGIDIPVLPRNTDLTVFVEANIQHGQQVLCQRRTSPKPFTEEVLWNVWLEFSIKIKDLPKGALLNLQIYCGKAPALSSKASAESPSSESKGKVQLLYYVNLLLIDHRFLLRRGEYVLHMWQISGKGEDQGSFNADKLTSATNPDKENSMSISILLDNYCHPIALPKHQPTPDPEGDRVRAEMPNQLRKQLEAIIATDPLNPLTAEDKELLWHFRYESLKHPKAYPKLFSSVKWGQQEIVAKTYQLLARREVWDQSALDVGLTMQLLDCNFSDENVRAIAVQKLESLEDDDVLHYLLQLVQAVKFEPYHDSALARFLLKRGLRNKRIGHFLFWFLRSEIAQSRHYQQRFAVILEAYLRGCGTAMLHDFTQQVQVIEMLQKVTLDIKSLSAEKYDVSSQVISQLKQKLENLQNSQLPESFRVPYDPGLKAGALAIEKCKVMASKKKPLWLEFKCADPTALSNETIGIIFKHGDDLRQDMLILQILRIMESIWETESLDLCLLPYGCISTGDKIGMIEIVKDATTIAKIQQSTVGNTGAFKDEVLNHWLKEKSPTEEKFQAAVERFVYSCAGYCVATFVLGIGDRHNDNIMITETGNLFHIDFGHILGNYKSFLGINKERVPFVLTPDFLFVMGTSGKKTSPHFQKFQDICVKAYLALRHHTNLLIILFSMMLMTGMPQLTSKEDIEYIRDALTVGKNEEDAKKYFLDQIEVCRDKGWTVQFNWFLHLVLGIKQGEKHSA

Some results are limits rather than exact numbers.

A word on the IC50: it is the midpoint of a concentration-inhibition curve. A higher IC50 goes with weaker potency. A word on the inhibition: it is the relative decrease from the control value, in per cent. Read a high inhibition as a response far below the control.

Sequence of PI3kδ (O00329 whole entry, canonical isoform): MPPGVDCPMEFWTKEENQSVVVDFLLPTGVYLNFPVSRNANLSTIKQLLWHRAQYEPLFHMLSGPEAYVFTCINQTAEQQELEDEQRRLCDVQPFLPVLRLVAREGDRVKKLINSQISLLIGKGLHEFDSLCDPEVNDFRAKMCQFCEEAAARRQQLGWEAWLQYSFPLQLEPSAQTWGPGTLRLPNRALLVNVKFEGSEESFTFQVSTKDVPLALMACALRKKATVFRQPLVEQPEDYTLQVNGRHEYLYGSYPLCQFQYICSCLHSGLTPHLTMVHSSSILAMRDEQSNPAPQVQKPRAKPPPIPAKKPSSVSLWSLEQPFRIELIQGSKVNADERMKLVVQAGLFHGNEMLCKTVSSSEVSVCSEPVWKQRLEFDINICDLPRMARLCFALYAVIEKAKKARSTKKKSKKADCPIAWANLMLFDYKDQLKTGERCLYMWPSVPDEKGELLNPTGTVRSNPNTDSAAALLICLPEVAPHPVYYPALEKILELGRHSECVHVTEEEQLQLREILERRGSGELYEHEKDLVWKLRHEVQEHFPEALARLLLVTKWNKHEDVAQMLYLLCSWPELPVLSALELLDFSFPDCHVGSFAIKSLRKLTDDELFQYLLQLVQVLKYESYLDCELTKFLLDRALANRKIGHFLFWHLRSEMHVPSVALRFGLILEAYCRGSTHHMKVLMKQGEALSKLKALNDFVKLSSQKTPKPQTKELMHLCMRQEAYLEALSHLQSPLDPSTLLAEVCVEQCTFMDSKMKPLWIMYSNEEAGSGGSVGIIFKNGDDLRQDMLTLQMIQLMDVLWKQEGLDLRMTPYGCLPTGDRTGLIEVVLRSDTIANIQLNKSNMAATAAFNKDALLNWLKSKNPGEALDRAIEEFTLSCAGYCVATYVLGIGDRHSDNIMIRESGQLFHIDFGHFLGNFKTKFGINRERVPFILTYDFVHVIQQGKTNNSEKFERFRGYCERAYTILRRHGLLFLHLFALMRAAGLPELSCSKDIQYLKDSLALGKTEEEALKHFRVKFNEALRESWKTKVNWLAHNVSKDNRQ
Sequence of PI3kδ (P27986 whole entry partner, canonical isoform): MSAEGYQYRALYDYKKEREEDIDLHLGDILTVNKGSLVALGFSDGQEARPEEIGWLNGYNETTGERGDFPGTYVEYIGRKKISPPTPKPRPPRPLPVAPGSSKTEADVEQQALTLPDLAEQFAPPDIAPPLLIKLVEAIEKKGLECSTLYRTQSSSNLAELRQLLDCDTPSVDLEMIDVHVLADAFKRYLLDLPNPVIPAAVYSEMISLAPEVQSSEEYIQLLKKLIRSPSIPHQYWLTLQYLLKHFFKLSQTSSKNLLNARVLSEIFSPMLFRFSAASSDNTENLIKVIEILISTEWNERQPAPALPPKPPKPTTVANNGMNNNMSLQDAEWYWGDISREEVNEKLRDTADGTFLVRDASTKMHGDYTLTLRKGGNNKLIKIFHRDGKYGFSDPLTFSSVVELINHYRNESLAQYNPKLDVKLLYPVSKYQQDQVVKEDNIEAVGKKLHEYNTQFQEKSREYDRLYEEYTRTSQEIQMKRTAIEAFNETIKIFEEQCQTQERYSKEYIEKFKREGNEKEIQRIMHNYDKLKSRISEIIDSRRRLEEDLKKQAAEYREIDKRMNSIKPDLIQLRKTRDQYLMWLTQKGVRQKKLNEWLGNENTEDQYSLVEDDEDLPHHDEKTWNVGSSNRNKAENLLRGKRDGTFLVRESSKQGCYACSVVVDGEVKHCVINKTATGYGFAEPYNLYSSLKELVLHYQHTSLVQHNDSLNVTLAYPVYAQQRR
Sequence of PI3kβ (P42338 whole entry): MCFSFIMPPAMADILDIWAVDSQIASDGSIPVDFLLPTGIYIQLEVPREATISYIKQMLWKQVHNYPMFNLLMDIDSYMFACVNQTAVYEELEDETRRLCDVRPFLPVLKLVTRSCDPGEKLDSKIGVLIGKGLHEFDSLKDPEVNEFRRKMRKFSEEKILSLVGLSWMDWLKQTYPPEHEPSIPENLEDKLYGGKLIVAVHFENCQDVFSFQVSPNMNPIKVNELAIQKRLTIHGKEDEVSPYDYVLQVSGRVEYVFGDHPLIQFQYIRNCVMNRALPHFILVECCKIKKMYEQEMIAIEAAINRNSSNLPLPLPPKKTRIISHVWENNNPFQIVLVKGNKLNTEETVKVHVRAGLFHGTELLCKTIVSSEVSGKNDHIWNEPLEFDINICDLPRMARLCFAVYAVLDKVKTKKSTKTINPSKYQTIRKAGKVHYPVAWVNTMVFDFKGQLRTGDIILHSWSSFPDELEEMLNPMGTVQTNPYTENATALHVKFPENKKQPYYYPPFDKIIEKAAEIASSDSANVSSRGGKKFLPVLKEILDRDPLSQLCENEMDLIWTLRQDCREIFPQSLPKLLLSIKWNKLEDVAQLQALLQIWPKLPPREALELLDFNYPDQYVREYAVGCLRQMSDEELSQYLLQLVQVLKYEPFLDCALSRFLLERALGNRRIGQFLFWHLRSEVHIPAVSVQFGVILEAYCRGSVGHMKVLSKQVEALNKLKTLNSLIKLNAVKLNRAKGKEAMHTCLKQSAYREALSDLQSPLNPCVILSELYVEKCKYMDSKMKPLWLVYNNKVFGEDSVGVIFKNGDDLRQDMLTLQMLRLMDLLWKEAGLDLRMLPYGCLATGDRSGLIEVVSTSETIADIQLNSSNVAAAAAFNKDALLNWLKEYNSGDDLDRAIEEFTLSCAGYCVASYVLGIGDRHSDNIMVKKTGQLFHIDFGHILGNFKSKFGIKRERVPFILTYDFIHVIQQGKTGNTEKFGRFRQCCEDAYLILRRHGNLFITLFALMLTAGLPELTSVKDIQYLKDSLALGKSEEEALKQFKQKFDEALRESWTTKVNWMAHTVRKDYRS
Sequence of PI3kβ (P27986 whole entry partner): as the sequence (P27986 whole entry partner, canonical isoform) above
Sequence of PI3kα (P42336 whole entry): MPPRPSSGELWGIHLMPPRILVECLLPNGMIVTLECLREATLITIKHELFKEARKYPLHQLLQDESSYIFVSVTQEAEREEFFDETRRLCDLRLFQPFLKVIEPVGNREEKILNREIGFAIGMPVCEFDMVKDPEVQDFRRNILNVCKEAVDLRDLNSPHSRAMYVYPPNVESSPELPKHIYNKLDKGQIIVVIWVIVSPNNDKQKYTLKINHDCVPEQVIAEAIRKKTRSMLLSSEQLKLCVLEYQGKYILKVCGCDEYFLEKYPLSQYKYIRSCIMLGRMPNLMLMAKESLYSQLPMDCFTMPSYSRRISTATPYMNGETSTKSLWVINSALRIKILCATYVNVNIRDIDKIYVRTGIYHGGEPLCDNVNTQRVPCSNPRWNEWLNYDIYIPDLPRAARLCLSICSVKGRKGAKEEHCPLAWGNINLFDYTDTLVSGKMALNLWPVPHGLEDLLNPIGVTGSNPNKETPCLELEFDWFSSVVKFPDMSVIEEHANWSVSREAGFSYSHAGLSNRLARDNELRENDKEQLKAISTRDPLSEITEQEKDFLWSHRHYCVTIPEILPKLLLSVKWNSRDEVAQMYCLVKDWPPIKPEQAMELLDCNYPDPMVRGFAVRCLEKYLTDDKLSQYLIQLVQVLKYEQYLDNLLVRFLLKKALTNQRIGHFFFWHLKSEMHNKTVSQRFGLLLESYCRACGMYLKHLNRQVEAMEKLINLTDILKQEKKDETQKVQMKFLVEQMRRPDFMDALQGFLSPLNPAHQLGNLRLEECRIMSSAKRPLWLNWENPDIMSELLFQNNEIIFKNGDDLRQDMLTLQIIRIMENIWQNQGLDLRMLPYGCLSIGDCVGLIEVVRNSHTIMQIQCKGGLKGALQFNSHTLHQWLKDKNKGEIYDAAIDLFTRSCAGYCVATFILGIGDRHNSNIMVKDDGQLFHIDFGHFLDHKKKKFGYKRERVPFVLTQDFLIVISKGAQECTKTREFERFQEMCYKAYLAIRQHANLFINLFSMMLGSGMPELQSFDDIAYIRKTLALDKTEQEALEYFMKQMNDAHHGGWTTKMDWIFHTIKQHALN
Sequence of PI3kα (P27986 whole entry partner): as the sequence (P27986 whole entry partner, canonical isoform) above

Regarding `CC(C)Oc1ccc(-c2nn(C(C)c3oc4cccc(F)c4c(=O)c3-c3ccccc3)c3ncnc(N)c23)cc1F` (stereo not drawn) [Example 13, 2-(1-(4-amino-3-(3-fluoro-4-isopropoxyphenyl)-1H-pyrazolo[3,4-d]pyrimidin-1-yl)ethyl)-5-fluoro-3-phenyl-4H-chromen-4-one], on PI3kδ, the IC50 was at most 50 nM. Further, the inhibition at 0.3 µM lay in the range of 75 to 100% on PI3kδ and 50 to 75% against PI3kγ. In addition, the “% inhibition (PI3kα) 1 uM” value on PI3kα was “D (D=0 to 25%)”. Moreover, the “% inhibition (PI3kβ) 1 uM” value on PI3kβ is listed as “D (D=0 to 25%)”.
For `CC(c1oc2cccc(F)c2c(=O)c1-c1cccc(F)c1)n1nc(-c2cc3ccccc3o2)c2c(N)ncnc21` (stereo not drawn) [Example 14, 2-(1-(4-amino-3-(benzofuran-2-yl)-1H-pyrazolo[3,4-d]pyrimidin-1-yl)ethyl)-5-fluoro-3-(3-fluorophenyl)-4H-chromen-4-one], the IC50 against PI3kδ and against PI3kγ was 50 to 100 nM in each case. Moreover, the inhibition at 0.3 µM against PI3kδ and against PI3kγ was 75 to 100% each time. The figures for the inhibition at 1 µM against PI3kα and against PI3kβ were 25 to 50% and 0 to 25%, respectively.
With `CC(c1oc2cccc(F)c2c(=O)c1-c1cccc(F)c1)n1ncc2c(N)ncnc21` (stereo not drawn) [Example 16, 2-(1-(4-amino-1H-pyrazolo[3,4-d]pyrimidin-1-yl)ethyl)-5-fluoro-3-(3-fluorophenyl)-4H-chromen-4-one], the IC50 at PI3kδ lay within 50 to 100 nM. The inhibition at 0.3 µM on PI3kδ was in the range of 75 to 100%; against PI3kγ, 0 to 25%. The inhibition at 1 µM is 25 to 50% at PI3kα and 0 to 25% against PI3kβ.
On to `CC(c1oc2cccc(F)c2c(=O)c1-c1cccc(F)c1)n1nc(-c2ccc(OC(F)F)c(F)c2)c2c(N)ncnc21` (stereo not drawn) [Example 17, 2-(1-(4-amino-3-(4-(difluoromethoxy)-3-fluorophenyl)-1H-pyrazolo[3,4-d]pyrimidin-1-yl)ethyl)-5-fluoro-3-(3-fluorophenyl)-4H-chromen-4-one], for which the inhibition at 0.3 µM was in the range of 75 to 100% at PI3kδ and 25 to 50% at PI3kγ. Further, the inhibition at 1 µM was in the range of 0 to 25% against PI3kα and 25 to 50% against PI3kβ.
For the molecule `CC(C)Oc1ccc(-c2nn(C(C)c3oc4cccc(F)c4c(=O)c3-c3cn[nH]c3)c3ncnc(N)c23)cc1F` (stereo not drawn) [Example 18, 2-(1-(4-amino-3-(3-fluoro-4-isopropoxyphenyl)-1H-pyrazolo[3,4-d]pyrimidin-1-yl)ethyl)-5-fluoro-3-(1H-pyrazol-4-yl)-4H-chromen-4-one], the IC50 on PI3kδ lay in the range of 50 to 100 nM. Moreover, the inhibition at 0.3 µM against PI3kδ lay within 75 to 100%; against PI3kγ, 50 to 75%. Besides, the inhibition at 1 µM at PI3kα and against PI3kβ was 0 to 25% in each case.
For the molecule `CC(c1oc2cccc(F)c2c(=O)c1-c1cccc(F)c1)n1nc(-c2ccc(OC3CCOCC3)c(F)c2)c2c(N)ncnc21` (stereo not drawn) [Example 19, 2-(1-(4-amino-3-(3-fluoro-4-(tetrahydro-2H-pyran-4-yloxy)phenyl)-1H-pyrazolo[3,4-d]pyrimidin-1-yl)ethyl)-5-fluoro-3-(3-fluorophenyl)-4H-chromen-4-one], the inhibition at 0.3 µM at PI3kδ lay in the range of 50 to 75%; at PI3kγ, 75 to 100%. Besides, the inhibition at 1 µM against PI3kα and against PI3kβ was 25 to 50% in each case.
At PI3kδ, `CC(C)c1n[nH]c2cc(-c3nn(C(C)c4oc5cccc(F)c5c(=O)c4-c4cccc(F)c4)c4ncnc(N)c34)ccc12` (stereo not drawn) [Example 20, 2-(1-(4-amino-3-(3-isopropyl-1H-indazol-6-yl)-1H-pyrazolo[3,4-d]pyrimidin-1-yl)ethyl)-5-fluoro-3-(3-fluorophenyl)-4H-chromen-4-one] gave an IC50 of 50 to 100 nM. The inhibition at 0.3 µM was 75 to 100% at PI3kδ and 0 to 25% at PI3kγ. The inhibition at 1 µM on PI3kα fell in the range of 0 to 25%; on PI3kβ, 25 to 50%.
With `CC(c1oc2cccc(F)c2c(=O)c1-c1cccc(F)c1)n1nc(-c2ccc(NCCO)c(F)c2)c2c(N)ncnc21` (stereo not drawn) [Example 22, 2-(1-(4-amino-3-(3-fluoro-4-(2-hydroxyethylamino)phenyl)-1H-pyrazolo[3,4-d]pyrimidin-1-yl)ethyl)-5-fluoro-3-(3-fluorophenyl)-4H-chromen-4-one], the inhibition at 0.3 µM against PI3kδ fell in the range of 75 to 100%; on PI3kγ, 25 to 50%. In addition, the figures for the inhibition at 1 µM against PI3kα and on PI3kβ were 25 to 50% and 0 to 25%, respectively.
For `CC(C)Nc1ccc(-c2nn(C(C)c3oc4cccc(F)c4c(=O)c3-c3cccc(F)c3)c3ncnc(N)c23)cc1F` (stereo not drawn) [Example 23, 2-(1-(4-amino-3-(3-fluoro-4-(isopropylamino)phenyl)-1H-pyrazolo[3,4-d]pyrimidin-1-yl)ethyl)-5-fluoro-3-(3-fluorophenyl)-4H-chromen-4-one], the IC50 against PI3kδ is 50 to 100 nM; on PI3kγ it was at most 50 nM. Moreover, the inhibition at 0.3 µM on PI3kδ and against PI3kγ was 75 to 100% in each case. For the same molecule, the inhibition at 1 µM against PI3kα lay within 0 to 25%; against PI3kβ it was 25 to 50%.
Take `CC(c1oc2cccc(F)c2c(=O)c1-c1cccc(F)c1)n1nc(-c2ccc(N3CCN(C)CC3)c(F)c2)c2c(N)ncnc21` (stereo not drawn) [Example 27, 2-(1-(4-amino-3-(3-fluoro-4-(4-methylpiperazin-1-yl)phenyl)-1H-pyrazolo[3,4-d]pyrimidin-1-yl)ethyl)-5-fluoro-3-(3-fluorophenyl)-4H-chromen-4-one]: the inhibition at 0.3 µM against PI3kδ lay in the range of 25 to 50%; at PI3kγ, 50 to 75%. Further, the inhibition at 1 µM against PI3kα lay within 0 to 25%; at PI3kβ, 25 to 50%.
Consider `CC(c1oc2cccc(F)c2c(=O)c1-c1cccc(F)c1)n1ncc2c(N(C)C)ncnc21` (stereo not drawn) [Example 28, 2-(1-(4-(dimethylamino)-1H-pyrazolo[3,4-d]pyrimidin-1-yl)ethyl)-5-fluoro-3-(3-fluorophenyl)-4H-chromen-4-one], for which the inhibition at 0.3 µM at PI3kδ and against PI3kγ was 50 to 75% throughout. The results for the inhibition at 1 µM at PI3kα and on PI3kβ were 0 to 25% and 25 to 50%, respectively.
Regarding `CC(c1oc2cccc(F)c2c(=O)c1-c1ccccc1)n1ncc2c(N)ncnc21` (stereo not drawn) [Example 29, 2-(1-(4-amino-1H-pyrazolo[3,4-d]pyrimidin-1-yl)ethyl)-5-fluoro-3-phenyl-4H-chromen-4-one], the inhibition at 0.3 µM lay within 25 to 50% against PI3kδ and 50 to 75% against PI3kγ. Further, the inhibition at 1 µM against PI3kα lay in the range of 0 to 25%; on PI3kβ, 25 to 50%.
Regarding `CC(c1oc2cccc(F)c2c(=O)c1-c1ccc(F)cc1)n1ncc2c(N)ncnc21` (stereo not drawn) [Example 30, 2-(1-(4-amino-1H-pyrazolo[3,4-d]pyrimidin-1-yl)ethyl)-5-fluoro-3-(4-fluorophenyl)-4H-chromen-4-one], the inhibition at 0.3 µM against PI3kδ was 25 to 50%; against PI3kγ, 0 to 25%. Moreover, the inhibition at 1 µM against PI3kα was 25 to 50%; against PI3kβ, 0 to 25%.
Regarding `CC(c1oc2cccc(F)c2c(=O)c1-c1ccc(F)cc1)n1nc(-c2ccc(OC(F)F)c(F)c2)c2c(N)ncnc21` (stereo not drawn) [Example 31, 2-(1-(4-amino-3-(4-(difluoromethoxy)-3-fluorophenyl)-1H-pyrazolo[3,4-d]pyrimidin-1-yl)ethyl)-5-fluoro-3-(4-fluorophenyl)-4H-chromen-4-one], the inhibition at 0.3 µM against PI3kδ and at PI3kγ was 50 to 75% throughout. The inhibition at 1 µM against PI3kα and on PI3kβ was 25 to 50% in each case.
Take `CC(c1oc2cccc(F)c2c(=O)c1-c1ccccc1)n1nc(-c2ccc(OC(F)F)c(F)c2)c2c(N)ncnc21` (stereo not drawn) [Example 32, 2-(1-(4-amino-3-(4-(difluoromethoxy)-3-fluorophenyl)-1H-pyrazolo[3,4-d]pyrimidin-1-yl)ethyl)-5-fluoro-3-phenyl-4H-chromen-4-one]: the inhibition at 0.3 µM fell in the range of 0 to 25% on PI3kδ and 50 to 75% against PI3kγ. Also, the “% inhibition (PI3kα) 1 uM” value on PI3kα was “D (D=0 to 25%)”. For the same molecule, the “% inhibition (PI3kβ) 1 uM” value on PI3kβ is listed as “B (B=>50 to 75%)”.
For the molecule `Cc1nn(C(C)c2oc3cccc(F)c3c(=O)c2-c2cccc(F)c2)c2ncnc(N)c12` (stereo not drawn) [Example 33, 2-(1-(4-amino-3-methyl-1H-pyrazolo[3,4-d]pyrimidin-1-yl)ethyl)-5-fluoro-3-(3-fluorophenyl)-4H-chromen-4-one], the inhibition at 0.3 µM against PI3kδ and against PI3kγ was 50 to 75% throughout. The inhibition at 1 µM is 0 to 25% against PI3kα and 25 to 50% against PI3kβ.
Consider `CCc1nn(C(C)c2oc3cccc(F)c3c(=O)c2-c2cccc(F)c2)c2ncnc(N)c12` (stereo not drawn) [Example 34, 2-(1-(4-amino-3-ethyl-1H-pyrazolo[3,4-d]pyrimidin-1-yl)ethyl)-5-fluoro-3-(3-fluorophenyl)-4H-chromen-4-one], for which the inhibition at 0.3 µM on PI3kδ and at PI3kγ was 50 to 75% each time. Also, the inhibition at 1 µM was 0 to 25% against PI3kα and 25 to 50% against PI3kβ.
As for `CC(c1oc2cccc(F)c2c(=O)c1-c1cccc(F)c1)n1nc(-c2cc3ccccc3s2)c2c(N)ncnc21` (stereo not drawn) [Example 36, 2-(1-(4-amino-3-(benzo[b]thiophen-2-yl)-1H-pyrazolo[3,4-d]pyrimidin-1-yl)ethyl)-5-fluoro-3-(3-fluorophenyl)-4H-chromen-4-one], the inhibition at 0.3 µM at PI3kδ fell in the range of 25 to 50%; on PI3kγ, 75 to 100%. For the same molecule, the values for the inhibition at 1 µM on PI3kα and against PI3kβ were 0 to 25% and 50 to 75%, respectively.
The matching figures for `CC(c1oc2cccc(F)c2c(=O)c1-c1cccc(F)c1)n1nc(N2CCOCC2)c2c(N)ncnc21` (stereo not drawn) [Example 37, 2-(1-(4-amino-3-morpholino-1H-pyrazolo[3,4-d]pyrimidin-1-yl)ethyl)-5-fluoro-3-(3-fluorophenyl)-4H-chromen-4-one]: 0 to 25%, 50 to 75%, 0 to 25% and 25 to 50%.
